Read-outs that look alike come from different tables or passages of the source. Where a SMILES comes first, the peptide text is derived from it. [ ]: non-standard residue; d: D form. The star is where a group is joined. Cbz = O=C(OCc1ccccc1)*
Legend:
GADD45β/MKK7 complex = target: T1, GADD45β/MKK7 complex (Homo sapiens, UniProt O14733); assay: ELISA GADD45β/MKK7 competition assay; type: binding; details: for inhibition at 0.042 µM / % inhibition (ELISA): peptide at 42 nM
T1 construct: Full-length human (h)MKK7 was expressed as a protein fused to an N-terminal GST tag (GST-MKK7); made in house
T1 sequence (O14733 1-419): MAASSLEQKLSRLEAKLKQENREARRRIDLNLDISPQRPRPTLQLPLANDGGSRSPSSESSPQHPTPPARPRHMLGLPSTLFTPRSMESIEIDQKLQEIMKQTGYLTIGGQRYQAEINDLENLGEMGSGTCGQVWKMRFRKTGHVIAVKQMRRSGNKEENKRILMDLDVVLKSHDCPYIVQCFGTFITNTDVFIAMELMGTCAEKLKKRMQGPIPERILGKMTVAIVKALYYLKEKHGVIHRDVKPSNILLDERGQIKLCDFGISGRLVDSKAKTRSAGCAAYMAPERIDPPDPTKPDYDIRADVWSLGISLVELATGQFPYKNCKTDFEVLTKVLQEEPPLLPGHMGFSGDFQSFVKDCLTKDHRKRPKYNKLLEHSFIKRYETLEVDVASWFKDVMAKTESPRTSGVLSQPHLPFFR
Excerpt: Additional details are provided in Supplemental Experimental Procedures.
(1:1,000) and the HRP chromogenic substrate, o -phenylenediamine (OPD). GST -coated wells wer e […]
The ELISA competition screen used f or the isolation of antagonists of the GADD45β /MKK7 […]
The library deconvolution strategy used for this screen was described previously […]
General information about this type of screens can be found elsewhere […]
Values were expressed as the percentage of inhibition of His6-hGADD45β binding to GST-hMKK7 relative to the binding measured in the absence of […]
Dose-response, ELISA GADD45β /MKK7 competition assays were carried out under similar […]
As part of the SAR analysis and lead optimization process, where appropriate, competitors were tested at a concentration up to 100 nM. In order to determine their stability in biolog ical f luids , peptides were incubated at the concentration of 10 µM in […]
calculated using at least 7 concentrations of peptide and def ined as the mean concentration of peptide […]
the absence of competitor. W here indicated, values were expressed as the percentage of inhibition of His 6 -hGADD45β binding to GST-hMKK7 relative to the binding measured in the absence of competitor.
GST was used as a control in all the experiments. […]
tetrapeptide used as negative control in some of the ELISA and cellular assays was as f ollows: z -DNC, z-T yr -Asp-His-Gln-NH 2 . […]

U266 MM cells = details: read-out: IC50 (U266 cells); Table S3; day 6; [3H]thymidine incorporation or trypan blue exclusion
[1] = pharmacokinetics after single intravenous injection
Method: The pharmacokinetic analyses of DTP3 and z-DTP2 were outsourced. Additional details are provided in Supplemental Experimental Procedures. […]
Pharmacokinetic Anal yses
In vitro and in vivo pharmacok inetic analyses were outsourced to Cypr ot ex (http://www.c yprotex.com/home/) (Figure 7A, Tables S6). In vitro pharmacok inetic assays were perf ormed according to established, in- house protocols and included: plasma stability (human), thermodynamic solubility (PBS pH 7.4, at 37 °C f or 14 days), microsomal stability (human), plasma protein binding (PPB; mouse and human), and distribution coeff icient (LogD). In vivo pharmacok inetic […]
analyses were also perf ormed at Cyprotex according to established, in- house protocols. Brief ly, the peptides were dissolved in PBS and administered by single intravenous injection t o CD1 male mice at the dose of 10 mg/kg (25 -30 g of total body weight; n=3 mice per time point per compound) . Blood samples were collected in heparinized tubes at up to 7 tim e points after this injection (i.e. 0.08, 0.25, 0.5, 1, 2, 4 and 8 hr), and the plasma concentrations of the test peptide were determined at each time point by LC-MS/ MS, using a f ive- point standard curve covering a peptide concentration range from 3 to 3,000 ng/mL. Standard curves were prepared using blank plasma matrices and treated in the same manner as the test samples. The main pharmacok inetic parameters determined in these analyses were: terminal half-lif e (t 1/2 ), plasma clearance (CL), volume of distribution (V d ), and area under the plasma concentration versus time curve (AUC) (Figure 7A, Table S6). Values were calculated from the data of the peptide plasma concentration versus time curves using a non-compartmental model analysis, as described elsewhere (Groulx, 2006; Landaw and Di Stef ano 3rd, 1982) . […]

[2] = Table S2, read-out: % inhibition (ELISA)
[3] = Table S4, read-out: IC50s (ELISA)
[4] = Table S4, values marked (#), read-out: % inhibition of (ELISA)
[5] = Table S3, peptide at 10 nM, read-out: % inhibition (ELISA)
[6] = Table S3, read-out: IC50 (ELISA)
[7] = read-out: % inhibition of (ELISA)

CC(=O)N[C@@H](Cc1ccc(O)cc1)C(=O)N[C@@H](CCC(=O)O)C(=O)N[C@@H](Cc1c[nH]cn1)C(=O)N[C@@H](Cc1c[nH]c2ccccc12)C(N)=O [Ac-YEHW-NH2] (Ac-YEHW-NH2)
inhibition at 0.042 µM (GADD45β/MKK7 complex; [2]): 64%
IC50 (GADD45β/MKK7 complex; [3]): < 0.042 µM

CC(=O)N[C@@H](Cc1ccc(O)cc1)C(=O)N[C@@H](CCC(=O)O)C(=O)N[C@@H](CCCCN)C(=O)N[C@@H](Cc1ccccc1)C(N)=O [Ac-YEKF-NH2] (Ac-YEKF-NH2)
inhibition at 0.042 µM (GADD45β/MKK7 complex; [2]): 64%
IC50 (GADD45β/MKK7 complex; [3]): < 0.042 µM

CC(=O)N[C@@H](Cc1ccc(O)cc1)C(=O)N[C@@H](CCC(=O)O)C(=O)N[C@@H](CCCCN)C(=O)N[C@@H](Cc1c[nH]c2ccccc12)C(N)=O [Ac-YEKW-NH2] (Ac-YEKW-NH2)
inhibition at 0.042 µM (GADD45β/MKK7 complex; [2]): 22%
IC50 (GADD45β/MKK7 complex; [3]): > 0.042 µM

CC(=O)N[C@H](Cc1ccc(O)cc1)C(=O)N[C@H](CCC(=O)O)C(=O)N1CCC[C@@H]1C(=O)N[C@H](Cc1ccccc1)C(N)=O [Ac-YEPF-NH2] (Ac-[dY][dE][dP][dF]-NH2)
inhibition at 0.042 µM (GADD45β/MKK7 complex; [4]): 13%

CC(=O)N[C@H](Cc1ccc(O)cc1)C(=O)N[C@H](CCC(=O)O)C(=O)N[C@H](CCCNC(=N)N)C(=O)N[C@H](C)C(N)=O [Ac-YERA-NH2] (Ac-[dY][dE][dR][dA]-NH2)
inhibition at 0.01 µM (GADD45β/MKK7 complex; Table S4, values marked (##), peptide at 10 nM, read-out: % inhibition of (ELISA)): 28%

CC(=O)N[C@H](Cc1ccc(O)cc1)C(=O)N[C@H](CCC(=O)O)C(=O)N[C@H](CCCNC(=N)N)C(=O)N[C@H](Cc1ccccc1)C(=O)N[C@H](CCCCNC(=O)OCc1ccccc1)C(N)=O [Ac-YERFK(εZ)-NH2] (Ac-[dY][dE][dR][dF][dK](Cbz)-NH2)
inhibition at 0.01 µM (GADD45β/MKK7 complex; [5]): 6%
IC50 (GADD45β/MKK7 complex; [6]): > 0.01 µM

CC(=O)N[C@H](Cc1ccc(O)cc1)C(=O)N[C@H](CCC(=O)O)C(=O)N[C@H](CCCNC(=N)N)C(=O)N1CCC[C@@H]1C(N)=O [Ac-YERP-NH2] (Ac-[dY][dE][dR][dP]-NH2)
inhibition at 0.042 µM (GADD45β/MKK7 complex; [4]): 0%

CC(=O)N[C@H](Cc1ccc(O)cc1)C(=O)N1CCC[C@@H]1C(=O)N[C@H](CCCNC(=N)N)C(=O)N[C@H](Cc1ccccc1)C(N)=O [Ac-YPRF-NH2] (Ac-[dY][dP][dR][dF]-NH2)
inhibition at 0.042 µM (GADD45β/MKK7 complex; [4]): 13%

NC(=O)[C@@H](Cc1ccccc1)NC(=O)[C@@H](Cc1c[nH]cn1)NC(=O)[C@@H](CC(=O)O)NC(=O)[C@@H](Cc1ccc(O)cc1)NC(=O)c1ccccc1 [Benzoyl-YDHF-NH2]
IC50 (GADD45β/MKK7 complex): > 0.01 µM
inhibition at 0.01 µM (GADD45β/MKK7 complex; read-out: % inhibition (ELISA)): 0%
inhibition at 0.01 µM (GADD45β/MKK7 complex; [7]): 1%
IC50 (U266 MM cells): > 10 µM

NC(=O)CC[C@@H](NC(=O)[C@@H](Cc1c[nH]cn1)NC(=O)[C@@H](CC(=O)O)NC(=O)[C@@H](Cc1ccc(O)cc1)NC(=O)c1ccccc1)C(N)=O [Benzoyl-YDHQ-NH2]
IC50 (GADD45β/MKK7 complex): > 0.01 µM
inhibition at 0.01 µM (GADD45β/MKK7 complex; read-out: % inhibition (ELISA)): 1%
inhibition at 0.01 µM (GADD45β/MKK7 complex; [7]): 0%
IC50 (U266 MM cells): > 10 µM

N=C(N)NCCC[C@@H](NC(=O)[C@@H](CCC(=O)O)NC(=O)[C@@H](Cc1ccc(O)cc1)NC(=O)c1ccccc1)C(=O)N[C@H](Cc1ccccc1)C(N)=O [Benzoyl-YERF-NH2]
IC50 (GADD45β/MKK7 complex): > 0.01 µM
inhibition at 0.01 µM (GADD45β/MKK7 complex; read-out: % inhibition (ELISA)): 24%
IC50 (U266 MM cells): > 10 µM

NC(=O)CC[C@@H](NC(=O)[C@@H](Cc1c[nH]cn1)NC(=O)[C@@H](CC(=O)O)NC(=O)[C@@H](Cc1ccc(O)cc1)NC(=O)OCC1c2ccccc2-c2ccccc21)C(N)=O [Fmoc-YDFQ-NH2]
inhibition at 0.01 µM (GADD45β/MKK7 complex; [5]): 19%

NC(=O)[C@@H](Cc1ccccc1)NC(=O)[C@@H](Cc1c[nH]cn1)NC(=O)[C@@H](CC(=O)O)NC(=O)[C@@H](Cc1ccc(O)cc1)NC(=O)OCC1c2ccccc2-c2ccccc21 [Fmoc-YDHF-NH2]
inhibition at 0.01 µM (GADD45β/MKK7 complex; [5]): 58%
IC50 (GADD45β/MKK7 complex; [6]): < 0.01 µM

N=C(N)NCCC[C@@H](NC(=O)[C@@H](CCC(=O)O)NC(=O)[C@@H](Cc1ccc(O)cc1)NC(=O)OCC1c2ccccc2-c2ccccc21)C(=O)N[C@H](Cc1ccccc1)C(N)=O [Fmoc-YERF-NH2]
inhibition at 0.01 µM (GADD45β/MKK7 complex; [5]): 60%
IC50 (GADD45β/MKK7 complex; [6]): < 0.01 µM

NC(=O)[C@@H](Cc1ccccc1)NC(=O)[C@@H](Cc1c[nH]cn1)NC(=O)[C@H](N)Cc1ccc(O)cc1 [H-YHF-NH2]
IC50 (GADD45β/MKK7 complex; [3]): 0.00065 µM

N=C(N)NCCC[C@@H](NC(=O)[C@H](N)Cc1ccc(O)cc1)C(=O)N[C@H](Cc1ccc(O)cc1)C(N)=O [H-YRY-NH2]
IC50 (GADD45β/MKK7 complex; [3]): 0.00075 µM

NC(=O)CC[C@@H](NC(=O)[C@@H](Cc1c[nH]cn1)NC(=O)[C@@H](CC(=O)O)NC(=O)[C@@H](Cc1ccc(O)cc1)NC(=O)OCc1ccccc1)C(N)=O [z-DNC, z-YDHQ-NH2] (Cbz-[dY][dD][dH][dQ]-NH2)
inhibition at 0.01 µM (GADD45β/MKK7 complex; [5]): 12%

NC(=O)[C@@H](Cc1ccccc1)NC(=O)[C@@H](Cc1c[nH]cn1)NC(=O)[C@@H](CC(=O)O)NC(=O)[C@@H](Cc1ccc(O)cc1)NC(=O)OCc1ccccc1 [z-DTP1, z-YDHF-NH2] (Cbz-[dY][dD][dH][dF]-NH2)
inhibition at 0.01 µM (GADD45β/MKK7 complex; [5]): 84%

N=C(N)NCCC[C@@H](NC(=O)[C@@H](CCC(=O)O)NC(=O)[C@@H](Cc1ccc(O)cc1)NC(=O)OCc1ccccc1)C(=O)N[C@H](Cc1ccccc1)C(N)=O [z-DTP2, z-YERF-NH2] (Cbz-[dY][dE][dR][dF]-NH2)
inhibition at 0.01 µM (GADD45β/MKK7 complex; [5]): 95%
predicted dose required to achieve the therapeutic plasma concentration of 1 μM at the steady state ([1]; k0 = k1 x Vd x Cp): 3.61 mg/kg/h
AUC ([1]; mouse, in vivo, iv, 10 mg/kg): 2060 ± 250 ng·h/mL
Vd ([1]; mouse, in vivo, iv, 10 mg/kg): 14.6 ± 2.23 L/kg
clearance ([1]; mouse, in vivo, iv, 10 mg/kg): 78.1 ± 11.7 mL/min/kg
half-life ([1]; mouse, in vivo, iv, 10 mg/kg): 2.09 ± 0.07 h

COC(=O)C[C@@H](NC(=O)[C@@H](Cc1ccc(O)cc1)NC(=O)OCc1ccccc1)C(=O)N[C@H](Cc1c[nH]cn1)C(=O)N[C@H](Cc1ccccc1)C(N)=O [z-YD(O-methyl)HF-NH2] (Cbz-[dY][dD](OMe)[dH][dF]-NH2)
inhibition at 0.01 µM (GADD45β/MKK7 complex; [5]): 84%
IC50 (GADD45β/MKK7 complex; [6]): > 0.01 µM

COC(=O)C[C@@H](NC(=O)[C@@H](Cc1ccc(O)cc1)NC(=O)OCc1ccccc1)C(=O)N[C@H](Cc1c[nH]cn1)C(=O)N[C@H](CCC(N)=O)C(N)=O [z-YD(O-methyl)HQ-NH2] (Cbz-[dY][dD](OMe)[dH][dQ]-NH2)
inhibition at 0.01 µM (GADD45β/MKK7 complex; [5]): 3%
IC50 (GADD45β/MKK7 complex; [6]): > 0.01 µM

Ac-WDHW-NH2
% inhibition (ELISA) (GADD45β/MKK7 complex; Table S2): 50%

Ac-WDRF-NH2
% inhibition (ELISA) (GADD45β/MKK7 complex; Table S2): 45%

Ac-WEHF-NH2
% inhibition (ELISA) (GADD45β/MKK7 complex; Table S2): 35%

Ac-YDHW-NH2
% inhibition (ELISA) (GADD45β/MKK7 complex; Table S2): 57%

Ac-YDKF-NH2
% inhibition (ELISA) (GADD45β/MKK7 complex; Table S2): 34%

Ac-YDRF-NH2
% inhibition (ELISA) (GADD45β/MKK7 complex; Table S2): 45%

Ac-YDRW-NH2
% inhibition (ELISA) (GADD45β/MKK7 complex; Table S2): 43%

Ac-YEHF-NH2
% inhibition (ELISA) (GADD45β/MKK7 complex; Table S2): 52%

Ac-YERW-NH2
% inhibition (ELISA) (GADD45β/MKK7 complex; Table S2): 27%
